# From patent US20210261524A1, “THERAPEUTIC COMPOUNDS AND COMPOSITIONS” (Exithera Pharmaceuticals, Inc., priority 2018, published 2021)
# Tested on: blood coagulation components
# Settings: dog, in vivo
# Description: The following parameters and endpoints were evaluated in this study: mortality, body weight, physical, clinical pathology parameters (hematology and coagulation), […], and bioanalytical parameters.
# The vehicle and test article were administered via intravenous (IV) infusion once on Day 1 for 135 minutes (initiated 30 minutes prior to starting the Cardiopulmonary Bypass (CPB) and continuing for 105 minutes of CPB). Group 2 animals received a […] IV bolus dose immediately prior to the start of IV infusion. Group 3, 4, and 5 animals received a 10 mg/kg IV bolus dose prior to the start of the IV infusion; with the CPB machine primed with test article at 10 μg/mL.
# Infusion of the Compound 1 was started 30 minutes prior to the animal being placed on the CPB pump. The CPB pump was primed with 0.9% saline.
# Venous and arterial sheaths were flushed with the Compound 1 at a concentration of 10 μg/mL. An IV bolus dose of the test article was administered immediately prior to the start of the infusion. Infusion of Compound 1 was started 30 minutes prior to the animal being placed on the CPB pump. The CPB […] was primed with 10 μg/mL of the Compound 1 prior to initiation of the CPB pump.
# An IV bolus dose of the Compound 1 was administered immediately prior to the start of the infusion. […]
structure (smiles),measurement,value
"C[C@@H](NC(=O)N1C(=O)[C@H](Cc2ccnc(N)c2)[C@H]1C(=O)O)C1CCCCC1 [Compound 1, (2S,3R)-3-((2-aminopyridin-4-yl)methyl)-1-(((R)-1-cyclohexylethyl)carbamoyl)-4-oxoazetidine-2-carboxylic acid]",morbidity or mortality,not associated with any increases in morbidity or mortality
same,mortality (survival to study termination),All animals survived to study termination
